The structures appear in SMILES notation.

This assay has as its target T1, RORc ligand binding domain (Homo sapiens, UniProt P51449).
T1 construct: host or cells: E. coli
T1 sequence (P51449 269-508 limits assumed): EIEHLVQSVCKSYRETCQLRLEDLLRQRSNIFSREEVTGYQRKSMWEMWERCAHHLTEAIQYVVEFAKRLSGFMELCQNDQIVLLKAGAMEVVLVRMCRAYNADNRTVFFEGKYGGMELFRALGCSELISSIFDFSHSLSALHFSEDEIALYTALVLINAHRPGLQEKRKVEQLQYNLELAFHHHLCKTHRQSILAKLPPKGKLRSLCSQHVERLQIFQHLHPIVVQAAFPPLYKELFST
As to the kind of experiment: In Vitro RORc Ligand Binding Assay. Particulars: displacement of 25-[3H]hydroxycholesterol (6 nM), 0.6 ug/mL RORc receptor, 3 h at 25° C. As to the method:
In Vitro RORc Ligand Binding Assay This assay was used to determine a compound's potency in inhibiting activity of RORc by determining, Kiapp, IC50, or percent inhibition values. […] On day of the assay, 100 uL of 0.05% CHAPS (in deionized H2O) was added to all wells of the GFB Unifilter plate and allowed soak for 1 h. A wash buffer of 50 mM HEPES (pH 7.4), 150 mM NaCl, and 5 mM MgCl2 was prepared to wash the filter plate. To prepare an assay buffer, BSA was added to the wash buffer to reach 0.01% and DTT was added to reach 1 mM. […] The 20× compound stocks were diluted in DMSO with Assay Buffer 4-fold to reach 5× the final test concentration in 25% DMSO (10 uL compound+30 uL Assay Buffer). Solutions were mixed by aspiration several times with a pipette set on 50 uL volume. For the assay, 10 uL of 5× compound stock solutions in 25% DMSO were added to the assay plate in duplicate. For two point screening, 10 mM stock compound solutions were diluted in DMSO to obtain 200 uM (20× the high test concentration) and then diluted 10-fold further to reach 20 uM (20× the low test concentration). The 20× stocks were diluted 4-fold with Assay Buffer (10 uL compound+30 uL Assay Buffer) to reach 5× the test concentrations (50 uM and 5 uM) and 10 uL were added to two assay plates for the duplicate wells. […] Add 20 uL to all wells to reach 6 nM final concentration in the assay. […] Stock receptor solution was diluted in assay buffer to obtain 1.5 ug/mL in Assay Buffer. 20 uL was added to all wells. For No Receptor samples, 20 uL Assay Buffer was substituted for receptor solution. […] Following addition to the wells, the plates were incubated 3 h at 25° C. Using a Packard Filtermate Harvester, the filter plate were washed 4 times following transfer of the incubated samples. Plates were dry-filtered completely (2 h at 50° C. or overnight at room temperature). 50 uL Microscint 0 was added to all wells and read on Topcount protocol Inverted. […] For NSB wells, 1 uM 25-hydroxycholesterol was also present.
Regarding `CC(C)CN(Cc1ccc(F)cc1)S(=O)(=O)c1ccc(NC2CCN(S(C)(=O)=O)CC2)cc1` [Compound 2, N-(4-Fluoro-benzyl)-N-isobutyl-4-(1-methanesulfonyl-piperidin-4-ylamino)-benzenesulfonamide], the IC50 was determined as 8 nM. Then `CS(=O)(=O)N1CCC(Oc2ccc(S(=O)(=O)N(Cc3ccccc3C(F)(F)F)C3CCC3)cc2)CC1` [Compound 89, N-Cyclobutyl-4-(1-methanesulfonyl-piperidin-4-yloxy)-N-(2-trifluoromethyl-benzyl)-benzenesulfonamide], with 9 nM; and `CC(C)CN(c1cccc(Cl)c1)S(=O)(=O)c1ccc(N2CCC(O)CC2)cc1` [Compound 15, N-(3-Chloro-phenyl)-4-(4-hydroxy-piperidin-1-yl)-N-isobutyl-benzenesulfonamide], with 771 nM; and `CC(C)CN(Cc1ccc(OC(F)(F)F)cc1)S(=O)(=O)c1ccc(N2CCN(S(C)(=O)=O)CC2)cc1` [Compound 64, N-Isobutyl-4-(4-methanesulfonyl-piperazin-1-yl)-N-(4-trifluoromethoxy-benzyl)-benzenesulfonamide], with 102 nM. Then `CN(C)S(=O)(=O)N1CCN(c2ccc(S(=O)(=O)N(Cc3ccccc3C(F)(F)F)C3CCC3)cc2)CC1` [Compound 77, 4-{4-[Cyclobutyl-(2-trifluoromethyl-benzyl)-sulfamoyl]-phenyl}-piperazine-1-sulfonic acid dimethylamide], with 25 nM; and `CC(=O)N1CCN(c2ccc(S(=O)(=O)N(CC(F)F)c3cccc(Cl)c3)cc2)CC1` [Compound 38, 4-(4-Acetyl-piperazin-1-yl)-N-(3-chloro-phenyl)-N-(2,2-difluoro-ethyl)-benzenesulfonamide], with 1400 nM.

`CC(C)CN(c1c(F)cccc1F)S(=O)(=O)c1ccc(OC2CCN(S(C)(=O)=O)CC2)cc1` [Compound 52, N-(2,6-Difluoro-phenyl)-N-isobutyl-4-(1-methanesulfonyl-piperidin-4-yloxy)-benzenesulfonamide] registered an IC50 of 11 nM. Then `CC(C)CN(c1cccc(Cl)c1)S(=O)(=O)c1ccc(NC2CCN(S(C)(=O)=O)CC2)cc1` [Compound 32, N-(3-Chloro-phenyl)-N-isobutyl-4-(1-methanesulfonyl-piperidin-4-ylamino)-benzenesulfonamide], with 7 nM; and `CC(C)CN(Cc1ccccc1C(F)(F)F)S(=O)(=O)c1ccc(N2CCN(S(C)(=O)=O)CC2)c(F)c1` [Compound 75, 3-Fluoro-N-isobutyl-4-(4-methanesulfonyl-piperazin-1-yl)-N-(2-trifluoromethyl-benzyl)-benzenesulfonamide], with 8 nM; and `CC(=O)N1CCN(c2ccc(S(=O)(=O)N(c3cccc(Cl)c3)C(C)C)cc2)CC1` [Compound 28, 4-(4-Acetyl-piperazin-1-yl)-N-(3-chloro-phenyl)-N-isopropyl-benzenesulfonamide], with 1600 nM. Then `CC(C)CN(c1ccc(F)cc1)S(=O)(=O)c1ccc(C(=O)NC2CCN(S(C)(=O)=O)CC2)cc1` [Compound 12, 4-[(4-Fluoro-phenyl)-isobutyl-sulfamoyl]-N-(1-methanesulfonyl-piperidin-4-yl)-benzamide], with 6100 nM. `CS(=O)(=O)N1CCC(Oc2ccc(S(=O)(=O)N(c3cccc(F)c3)C3CCC3)cc2)CC1` [Compound 4, N-Cyclobutyl-N-(3-fluoro-phenyl)-4-(1-methanesulfonyl-piperidin-4-yloxy)-benzenesulfonamide]: the IC50 is 29 nM. Then `CC(C)CN(c1cccc(Cl)c1)S(=O)(=O)c1cccc(N2CCN(S(C)(=O)=O)CC2)c1` [Compound 26, N-(3-Chloro-phenyl)-N-isobutyl-3-(4-methanesulfonyl-piperazin-1-yl)-benzenesulfonamide], with 414 nM; and `CC(=O)N1CCN(c2ccc(S(=O)(=O)N(Cc3ccc(Cl)cc3)CC(C)C)cc2)CC1` [Compound 67, 4-(4-Acetyl-piperazin-1-yl)-N-(4-chloro-benzyl)-N-isobutyl-benzenesulfonamide], with 87 nM. In the case of `CC(C)CN(Cc1ccccc1C(F)(F)F)S(=O)(=O)c1ccc(N2CCC(C(N)=O)CC2)cc1` [Compound 83, 1-{4-[Isobutyl-(2-trifluoromethyl-benzyl)-sulfamoyl]-phenyl}-piperidine-4-carboxylic acid amide], the IC50 was 24 nM. Then `CC(C)CN(c1cccc(Cl)c1)S(=O)(=O)c1ccc(OC2CCN(S(=O)(=O)N(C)C)CC2)cc1` [Compound 39, 4-{4-[(3-Chloro-phenyl)-isobutyl-sulfamoyl]-phenoxy}-piperidine-1-sulfonic acid dimethylamide], with 191 nM. As for `CC(=O)N1CCC(Nc2ccc(S(=O)(=O)N(CC(C)C)c3cccc(Cl)c3)cc2)CC1` [Compound 31, 4-(1-Acetyl-piperidin-4-ylamino)-N-(3-chloro-phenyl)-N-isobutyl-benzenesulfonamide], the IC50 stood at 258 nM. For the molecule `CC(C)CN(c1ccc(F)cc1)S(=O)(=O)c1ccc(C(=O)N2CCN(S(C)(=O)=O)CC2)cc1` [Compound 53, N-(4-Fluoro-phenyl)-N-isobutyl-4-(4-methanesulfonyl-piperazine-1-carbonyl)-benzenesulfonamide], the IC50 was 299 nM.

`CC(C)CN(Cc1ccc(Cl)cc1)S(=O)(=O)c1ccc(NC2CCN(S(C)(=O)=O)CC2)cc1` [Compound 91, N-(4-Chloro-benzyl)-N-isobutyl-4-(1-methanesulfonyl-piperidin-4-ylamino)-benzenesulfonamide] showed a concentration for half-maximal inhibition (IC50) of 10 nM.

Consider `CC(C)CN(c1cccc(Cl)c1)S(=O)(=O)c1ccc(N2CCN(S(=O)(=O)N(C)C)CC2)cc1` [Compound 19, 4-{4-[(3-Chloro-phenyl)-isobutyl-sulfamoyl]-phenyl}-piperazine-1-sulfonic acid dimethylamide], for which the IC50 was 62 nM. `CC(=O)N1CCC(Oc2ccc(S(=O)(=O)N(CC(C)C)c3cccc(Cl)c3)cc2)CC1` [Compound 33, 4-(1-Acetyl-piperidin-4-yloxy)-N-(3-chloro-phenyl)-N-isobutyl-benzenesulfonamide] gave an IC50 of 198 nM. Compared with the last molecule, the IC50 is about 3.2-fold higher.

`CC(C)CN(c1ccccc1Cl)S(=O)(=O)c1ccc(N2CCC(O)CC2)cc1` [Compound 16, N-(2-Chloro-phenyl)-4-(4-hydroxy-piperidin-1-yl)-N-isobutyl-benzenesulfonamide] came in with an IC50 of 1300 nM. Under `CC(C)CN(c1cccc(Cl)c1)S(=O)(=O)c1ccc(N2CCN(S(C)(=O)=O)CC2)cc1F` [Compound 27, N-(3-Chloro-phenyl)-2-fluoro-N-isobutyl-4-(4-methanesulfonyl-piperazin-1-yl)-benzenesulfonamide] stands 33 nM; under `CN(C)S(=O)(=O)N1CCN(c2ccc(S(=O)(=O)N(Cc3ccccc3C(F)(F)F)C(C)(C)C)cc2)CC1` [Compound 82, 4-{4-[tert-Butyl-(2-trifluoromethyl-benzyl)-sulfamoyl]-phenyl}-piperazine-1-sulfonic acid dimethylamide], 51 nM; under `CC(C)CN(c1cccc(Cl)c1)S(=O)(=O)c1ccc(OC2CCN(S(C)(=O)=O)CC2)cc1` [Compound 34, N-(3-Chloro-phenyl)-N-isobutyl-4-(1-methanesulfonyl-piperidin-4-yloxy)-benzenesulfonamide], 8 nM. Then `CN(C)S(=O)(=O)N1CCN(c2ccc(S(=O)(=O)N(Cc3ccccc3C(F)(F)F)CC(F)F)cc2)CC1` [Compound 85, 4-{4-[(2,2-Difluoro-ethyl)-(2-trifluoromethyl-benzyl)-sulfamoyl]-phenyl}-piperazine-1-sulfonic acid dimethylamide], with 116 nM; and `CC(C)CN(c1cccc(Cl)c1)S(=O)(=O)c1ccc(N2CCN(S(C)(=O)=O)CC2)c(F)c1` [Compound 29, N-(3-Chloro-phenyl)-3-fluoro-N-isobutyl-4-(4-methanesulfonyl-piperazin-1-yl)-benzenesulfonamide], with 36 nM. As to `CC(C)CN(c1ccccc1C(F)(F)F)S(=O)(=O)c1ccc(NC2CCN(S(C)(=O)=O)CC2)cc1` [Compound 46, N-Isobutyl-4-(1-methanesulfonyl-piperidin-4-ylamino)-N-(2-trifluoromethyl-phenyl)-benzenesulfonamide], the IC50 came to 33 nM.

The IC50 is the point on the concentration scale where inhibition reaches its midpoint. Higher therefore signals weaker potency in that assay.

(Values after patent US9382222B2, “Benzyl sulfonamide derivatives as RORc modulators” (Genentech, Inc., priority 2012, dated 2016).)
